Each structure is given as a SMILES string. Where “and” joins values, the source holds several entries; their conditions need not be identical. Equal entries are not always repeated. Some results are limits rather than exact numbers.

The target in test [1] is D. immitis Slo-1 (Dirofilaria immitis, UniProt I0DFK5). The test can be described thus: D. immitis Slo-1, action at a recombinant CHO cell line (membrane potential, FLIPR). It is filed as cell-based.
Test [2] has as its system Nippostrongylus brasiliensis. Description: Nippostrongylus brasiliensis (NIPOBR) adult worms, acetylcholine esterase readout. Particulars: read-out: activity (reduction of AChE compared to negative control); for inhibition at 1 µg/mL: at 1 μg/ml (1 ppm). An outline of the steps: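 Adult worms washed in saline with penicillin/streptomycin/amphotericin B, then incubated in medium with test compound (DMSO) at final 10 μg/ml (10 ppm) or 1 μg/ml (1 ppm). Acetylcholine esterase activity in a medium aliquot served as anthelmintic readout, compared with negative control.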

In test [3] the test system is Dirofilaria immitis microfilariae. The test can be described thus: Dirofilaria immitis microfilariae (DIROIM L1) motility. Conditions: 72 h, read-out: EC50 (reduction of motility).
In test [4] the test system is Dirofilaria immitis. The test can be described thus: Dirofilaria immitis (DIROIM L4) larval motility. Particulars: 72 h, read-out: EC50 (reduction of motility).
The test system of test [5] is Cooperia curticei. Description: Cooperia curticei larval mortality. Conditions: 120 h, read-out: activity (percentage of larval mortality).
Protocol: In Vitro Assay 6: Cooperia curticei
Solvent: Dimethyl Sulfoxide
Approximately 40 nematode larvae (Cooperia curticei) are transferred into a test tube containing the compound solution.
After 5 days percentage of larval mortality is recorded. 100% efficacy means all larvae are killed; 0% efficacy means no larvae are killed.
Test [6] concerns Haemonchus contortus. The test can be described thus: Haemonchus contortus larval mortality. Particulars: 120 h, read-out: activity (percentage of larval mortality).
Protocol: In Vitro Assay 7: Haemonchus contortus
Solvent: Dimethyl Sulfoxide
Approximately 40 larvae of the red stomach worm (Haemonchus contortus) are transferred into a test tube containing compound solution.
After 5 days the percentage of larval mortality is recorded. 100% efficacy means all larvae are killed, 0% efficacy means no larvae are killed.
Test [7] concerns Litomosoides sigmodontis third-stage larvae. Description: Litomosoides sigmodontis (LTMOSI L3) larval motility. Particulars: 72 h, read-out: EC50 (reduction of motility).
Protocol: In Vitro Assay 6: Litomosoides sigmodontis (LTMOSI L3)
10 Litomosoides sigmodontis third-stage larvae, which were freshly isolated from the pleural cavity of an infected rodent, were added to wells of a microtitre plate containing a nutrient medium and the test compound in DMSO. Compounds were tested in concentration-response assay in duplicate. Larvae exposed to DMSO and no test compounds were used as negative controls. Larvae were evaluated after 72 h of incubation with the compound. Efficacy was determined as the reduction of motility in comparison to the negative control. Based on the evaluation of a wide concentration range, concentration-response curves as well as EC50-values were calculated.
The target of test [8] is C. elegans Slo-1a (Caenorhabditis elegans, UniProt Q95V25). Particulars: pE50 (negative decadic logarithm of EC50), CHO cells expressing C. elegans Slo-1a; voltage sensitive dye, 70 mM KCl.
C. elegans Slo-1a, sequence (Q95V25 whole entry): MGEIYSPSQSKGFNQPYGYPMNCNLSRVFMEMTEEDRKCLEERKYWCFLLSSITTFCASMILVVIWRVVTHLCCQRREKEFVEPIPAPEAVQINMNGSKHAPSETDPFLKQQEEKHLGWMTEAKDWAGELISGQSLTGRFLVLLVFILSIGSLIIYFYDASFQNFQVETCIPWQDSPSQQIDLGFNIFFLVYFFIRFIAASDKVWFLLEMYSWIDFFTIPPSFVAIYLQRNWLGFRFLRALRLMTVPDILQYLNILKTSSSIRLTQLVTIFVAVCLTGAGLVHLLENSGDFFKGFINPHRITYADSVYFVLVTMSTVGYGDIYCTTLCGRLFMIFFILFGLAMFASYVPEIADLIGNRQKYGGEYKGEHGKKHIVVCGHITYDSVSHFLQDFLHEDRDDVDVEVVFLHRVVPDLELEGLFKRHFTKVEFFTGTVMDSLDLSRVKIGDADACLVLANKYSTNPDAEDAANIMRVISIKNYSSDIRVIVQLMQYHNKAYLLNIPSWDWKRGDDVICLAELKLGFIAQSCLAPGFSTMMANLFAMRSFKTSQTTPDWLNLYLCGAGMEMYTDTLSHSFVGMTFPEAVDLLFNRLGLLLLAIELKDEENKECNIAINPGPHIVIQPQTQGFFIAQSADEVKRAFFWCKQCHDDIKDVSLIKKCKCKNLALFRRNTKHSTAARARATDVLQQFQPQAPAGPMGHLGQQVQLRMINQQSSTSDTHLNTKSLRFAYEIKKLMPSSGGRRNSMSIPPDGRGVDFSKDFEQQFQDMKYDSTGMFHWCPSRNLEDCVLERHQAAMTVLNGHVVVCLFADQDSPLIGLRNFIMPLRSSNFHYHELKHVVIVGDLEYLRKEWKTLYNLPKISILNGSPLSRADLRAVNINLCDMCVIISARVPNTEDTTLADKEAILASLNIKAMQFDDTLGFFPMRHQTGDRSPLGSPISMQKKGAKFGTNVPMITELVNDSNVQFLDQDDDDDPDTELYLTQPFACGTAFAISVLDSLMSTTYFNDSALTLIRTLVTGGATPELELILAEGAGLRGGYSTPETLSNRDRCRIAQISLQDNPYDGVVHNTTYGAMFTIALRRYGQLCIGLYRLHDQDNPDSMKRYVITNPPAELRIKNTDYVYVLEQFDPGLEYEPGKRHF

D. immitis Slo-1, sequence (I0DFK5 1-1119): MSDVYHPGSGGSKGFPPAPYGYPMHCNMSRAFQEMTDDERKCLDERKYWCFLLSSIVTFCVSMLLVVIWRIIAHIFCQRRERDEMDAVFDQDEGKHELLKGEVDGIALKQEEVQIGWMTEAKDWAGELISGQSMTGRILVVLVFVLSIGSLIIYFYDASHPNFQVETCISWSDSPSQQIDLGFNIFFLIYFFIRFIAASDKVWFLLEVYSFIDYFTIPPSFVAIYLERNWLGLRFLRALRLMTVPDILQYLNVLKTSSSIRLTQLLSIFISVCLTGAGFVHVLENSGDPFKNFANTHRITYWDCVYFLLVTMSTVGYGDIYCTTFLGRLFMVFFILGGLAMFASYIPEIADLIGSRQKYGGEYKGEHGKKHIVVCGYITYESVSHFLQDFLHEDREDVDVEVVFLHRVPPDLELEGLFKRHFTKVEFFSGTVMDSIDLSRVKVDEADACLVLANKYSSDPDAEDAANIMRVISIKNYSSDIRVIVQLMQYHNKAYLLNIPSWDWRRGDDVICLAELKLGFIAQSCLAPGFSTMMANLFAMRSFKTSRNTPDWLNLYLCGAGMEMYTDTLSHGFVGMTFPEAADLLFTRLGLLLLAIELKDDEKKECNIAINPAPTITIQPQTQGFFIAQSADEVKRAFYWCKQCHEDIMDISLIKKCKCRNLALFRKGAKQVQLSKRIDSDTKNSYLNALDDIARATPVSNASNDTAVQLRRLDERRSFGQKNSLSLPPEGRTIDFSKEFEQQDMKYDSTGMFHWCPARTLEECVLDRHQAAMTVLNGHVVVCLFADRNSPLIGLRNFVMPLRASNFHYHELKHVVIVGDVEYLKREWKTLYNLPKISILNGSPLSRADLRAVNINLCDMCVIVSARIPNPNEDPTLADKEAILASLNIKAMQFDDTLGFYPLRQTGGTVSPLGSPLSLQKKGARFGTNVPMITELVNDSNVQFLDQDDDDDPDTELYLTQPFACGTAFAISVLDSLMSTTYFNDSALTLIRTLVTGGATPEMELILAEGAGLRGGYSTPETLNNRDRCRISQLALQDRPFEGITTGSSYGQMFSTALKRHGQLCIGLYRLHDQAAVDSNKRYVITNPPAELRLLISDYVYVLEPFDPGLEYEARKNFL

On to `CN(C)c1c(C(=O)N[C@H]2CCOc3ccccc32)cnc2c(-c3cc(Cl)cc(Cl)c3)nccc12` [Example T1-1, 8-(3,5-Dichlorophenyl)-N-[(4S)-3,4-dihydro-2H-chromen-4-yl]-4-(dimethylamino)-1,7-naphthyridine-3-carboxamide], for which the EC50 (in general, the concentration giving half of the maximal effect) is 31.6 to 316 nM in test [1]; under 0.1 µg/mL in test [3]; under 0.1 µg/mL in test [4]; under 0.1 µg/mL in test [7]; 3.16 to 31.6 nM in test [8]. The inhibition at 1 µg/mL in test [2] was over 80%. The mortality (commonly the percentage killed) at 4 ppm in test [5] worked out at 100%. Moreover, the mortality at 20 ppm in test [5] and in test [6] was 100% each time.
Consider `O=C(N[C@H]1CCOc2ccccc21)c1cnc2c(-c3cc(F)cc(F)c3F)nccc2c1N1CCOCC1` [Example T1-5, N-[(4S)-3,4-dihydro-2H-1-benzopyran-4-yl]-4-(morpholin-4-yl)-8-(2,3,5-trifluorophenyl)-1,7-naphthyridine-3-carboxamide], for which the EC50 was 31.6 to 316 nM in test [1]; under 0.1 µg/mL in test [3]; under 0.1 µg/mL in test [4]; under 0.1 µg/mL in test [7]; 3.16 to 31.6 nM in test [8]. Besides, the inhibition at 1 µg/mL in test [2] was over 80%. Further, in test [2] (at 10 μg/ml (10 ppm)), the inhibition at 10 µg/mL is over 80%. In addition, the mortality at 4 ppm in test [5] amounted to 100%. Moreover, the mortality at 20 ppm was 100% in test [5] and 80% in test [6].
For the compound `CN(C)c1c(C(=O)N[C@H]2CCOc3ccccc32)cnc2c(-c3cc(Cl)cc(Cl)c3)ccnc12` [Example T3-1, 8-(3,5-Dichlorophenyl)-N-[(4S)-3,4-dihydro-2H-chromen-4-yl]-4-(dimethylamino)-1,5-naphthyridine-3-carboxamide], the concentration for a half-maximal effect (EC50) is 3.16 to 31.6 nM in test [1]; under 0.1 µg/mL in test [3]; under 0.1 µg/mL in test [4]; under 0.1 µg/mL in test [7]; 3.16 to 31.6 nM and < 3.16 nM in test [8]. Also, the inhibition at 1 µg/mL in test [2] is over 80%. Also, the mortality at 4 ppm in test [5] is 100%. Also, the mortality at 20 ppm in test [5] and in test [6] was 100% in each case.
As for `CN(C)c1c(C(=O)N[C@H]2CCOc3ccccc32)cnc2c(-c3cccc(Cl)c3Cl)ccnc12` [Example T3-3, 8-(2,3-Dichlorophenyl)-N-[(4S)-3,4-dihydro-2H-chromen-4-yl]-4-(dimethylamino)-1,5-naphthyridine-3-carboxamide], the EC50 in test [1] is 3.16 to 31.6 nM; in test [3] it was under 0.1 µg/mL; in test [4], under 0.1 µg/mL; in test [7], under 0.1 µg/mL; in test [8], under 3.16 nM. In addition, the inhibition at 1 µg/mL in test [2] was over 80%. In test [5], the mortality at 4 ppm stood at 100%. In addition, the mortality at 20 ppm in test [5] and in test [6] was 100% in each case.
Take `COc1c(C(=O)N[C@H]2CCOc3ccccc32)nnc2c(-c3cccc(Cl)c3Cl)cccc12` [Example T5-7, 8-(2,3-Dichlorophenyl)-N-[(4S)-3,4-dihydro-2H-chromen-4-yl]-4-methoxycinnoline-3-carboxamide]: the EC50 in test [1] is 31.6 to 316 nM; in test [3] it was under 0.1 µg/mL; in test [4] it was under 0.1 µg/mL; in test [7] it was under 0.1 µg/mL; in test [8], under 3.16 nM. Moreover, the inhibition at 1 µg/mL in test [2] is over 80%. Also, the mortality at 4 ppm in test [5] amounted to 100%. In addition, the mortality at 20 ppm was determined as 100% in test [5] and 90% in test [6].

These data come from patent US11485733B2, “Azaquinoline derivatives” (BAYER ANIMAL HEALTH GMBH, priority 2017, dated 2022).
